Experimental data as given in patent US5583218A, “Carbapenem derivatives” (Daiichi Pharmaceutical Co., Ltd., priority 1988, dated 1996).
In brackets after ≈: the same amount, converted by molar mass. Like-named read-outs stand apart in the source and are kept apart here.

Experiments:
[1] = tested on: Ps. aeruginosa 32233; experiment: Minimum inhibitory concentration against Ps. aeruginosa 32233; type: cell-based; settings: Pseudomonas aeruginosa
[2] = tested on: Ent. cloacae 03400; experiment: Minimum inhibitory concentration against Ent. cloacae 03400; type: cell-based; settings: Enterobacter cloacae
[3] = tested on: C. difficile GAI-0747; experiment: Minimum inhibitory concentration against C. difficile GAI-0747; type: cell-based, Clostridium difficile; settings: Clostridioides difficile, GAI0747
[4] = tested on: S. aureus 209P; experiment: Minimum inhibitory concentration against S. aureus 209P; type: cell-based; settings: Staphylococcus aureus
[5] = tested on: E. coli NIHJ; experiment: Minimum inhibitory concentration against E. coli NIHJ; type: cell-based; settings: Escherichia coli
[6] = tested on: Ser. marcescens 10104; experiment: Minimum inhibitory concentration against Ser. marcescens 10104; type: cell-based, Serratia marcescens
[7] = tested on: gram-positive and gram-negative bacteria, obligate anaerobes, strains resistant to penicillins and cepharosporins; settings: bacteria resistant to penicillin and cepharosporin antibiotics; background art; cited from earlier work
[8] = Serratia marcescens, Ser. marcescens 10104, read-out: Minimum Inhibitory Concentration (MIC)

Row | SMILES | MIC [1] [µg/mL] | MIC [2] [µg/mL] | MIC [3] [µg/mL] | MIC [4] [µg/mL] | MIC [5] [µg/mL] | MIC [6, 8] [µg/mL] | MIC ([6]; Serratia marcescens, 10104, read-out: Minimum Inhibitory Concentration (MIC)) [µg/mL] | antibacterial activity [7]
1 | C[C@@H](O)[C@H]1C(=O)N2C(C(=O)O)=C(SC3Cc4cncn4C3)[C@H](C)[C@H]12 (single isomer, unassigned) [Compound 1] | 6.25 (≈ 17.9 µM) | < 0.1 | 3.13 (≈ 8.96 µM) | < 0.1 | < 0.1 | < 0.1 |  | 
2 | C[C@@H](O)[C@H]1C(=O)N2C(C(=O)O)=C(SC3Cc4nccn4C3)[C@H](C)[C@H]12 (single isomer, unassigned) [Compound 2] | 6.25 (≈ 17.9 µM) | < 0.1 | 1.56 (≈ 4.46 µM) | < 0.1 | < 0.1 | < 0.1 |  | 
3 | C[C@@H](O)[C@H]1C(=O)N2C(C(=O)O)=C(SCCN=CN)C[C@H]12 [MK-0787, reference compound] | 1.56 (≈ 5.21 µM) | 0.78 (≈ 2.61 µM) | 50 (≈ 167 µM) | < 0.1 | 0.2 (≈ 0.668 µM) |  | 1.56 (≈ 5.21 µM) | 
4 | C[C@@H](O)[C@H]1C(=O)N2C(C(=O)O)=C(SCCN)C[C@H]12 [Thienamycin] |  |  |  |  |  |  |  | effective even against bacteria resistant to penicillin and cepharosporin antibiotics
